pEC50: −log10 of the molar value.
Biological target: Serine/threonine-protein kinase PLK1 (Homo sapiens, UniProt P53350)
Assay: redox cycling hydrogen peroxide generation, dose response, artefact control for Plk1 PBD inhibitor project, biochemical, 1 mM DTT (AID 936)

Sequence of Serine/threonine-protein kinase PLK1 (P53350 whole entry): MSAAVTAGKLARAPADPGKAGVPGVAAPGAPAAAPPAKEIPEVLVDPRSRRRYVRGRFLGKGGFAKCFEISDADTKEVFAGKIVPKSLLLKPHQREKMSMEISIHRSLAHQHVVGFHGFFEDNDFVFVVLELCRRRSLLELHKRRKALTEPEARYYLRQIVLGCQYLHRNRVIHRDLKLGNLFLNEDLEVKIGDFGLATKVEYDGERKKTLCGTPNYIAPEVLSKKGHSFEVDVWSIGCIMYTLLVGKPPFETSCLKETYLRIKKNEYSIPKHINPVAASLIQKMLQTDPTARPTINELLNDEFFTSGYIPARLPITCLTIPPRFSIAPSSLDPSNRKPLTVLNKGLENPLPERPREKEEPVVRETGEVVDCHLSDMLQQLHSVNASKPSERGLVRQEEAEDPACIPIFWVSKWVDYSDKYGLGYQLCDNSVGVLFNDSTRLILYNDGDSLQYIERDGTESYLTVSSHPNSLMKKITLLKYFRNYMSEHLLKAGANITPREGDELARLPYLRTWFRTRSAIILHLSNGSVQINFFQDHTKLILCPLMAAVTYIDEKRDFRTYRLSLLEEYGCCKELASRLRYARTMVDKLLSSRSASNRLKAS

pEC50	SMILES
< 4.30	CC1CCCC(NC2CCCCNC2=O)C1 (stereo unspecified) [3-[(3-methylcyclohexyl)amino]-2-azepanone]
< 4.30	Cc1nc2cccc(C)n2c(=O)c1Cl [3-chloranyl-2,6-dimethyl-pyrido[1,2-a]pyrimidin-4-one]
< 4.30	CCn1cnc2sc(C(=O)N3CCN(c4ccc(OC)cc4)CC3)c(C)c2c1=O [3-ethyl-6-[4-(4-methoxyphenyl)piperazin-1-yl]carbonyl-5-methyl-thieno[2,3-d]pyrimidin-4-one]
< 4.30	O=C1Nc2ccc([N+](=O)[O-])cc2C1(O)N1CCCCC1 (stereo unspecified) [3-hydroxy-5-nitro-3-(1-piperidinyl)-1,3-dihydro-2H-indol-2-one]
< 4.30	CC1CN(C2CC(C)(C)NC(C)(C)C2)CCC1=O (stereo unspecified) [3-methyl-1-(2,2,6,6-tetramethyl-4-piperidinyl)-4-piperidinone]
4.55	O=C(NC(NC(=S)Nc1ccc(Cl)cc1Cl)C(Cl)(Cl)Cl)c1cccc([N+](=O)[O-])c1 (stereo unspecified) [3-nitro-N-[2,2,2-trichloro-1-({[(2,4-dichlorophenyl)amino]carbonothioyl}amino)ethyl]benzamide]
< 4.30	Cc1cccc(C)c1NC1=NC(=S)N(c2ccccc2)C12CCOC(C)(C)C2 (stereo unspecified) [4-(2,6-dimethylanilino)-7,7-dimethyl-1-phenyl-8-oxa-1,3-diazaspiro[4.5]dec-3-ene-2-thione]
< 4.30	Cc1ccccc1Oc1ncnc2oc(-c3ccccc3)cc12 [4-(2-methylphenoxy)-6-phenyl-furo[2,3-d]pyrimidine]
< 4.30	Cc1ccc(C(=O)c2c[nH]c(C(=O)NCCCN3CCOCC3)c2)cc1 [4-(4-methylbenzoyl)-N-(3-morpholin-4-ylpropyl)-1H-pyrrole-2-carboxamide]
< 4.30	CN(C)c1ccc(C(=O)Nc2nc3c(s2)CCCC3)cc1 [4-(dimethylamino)-N-(4,5,6,7-tetrahydro-1,3-benzothiazol-2-yl)benzamide]
< 4.30	O=C(CN1C(=O)COc2ccccc21)NCc1ccc(C(=O)O)cc1 [4-[[2-(3-oxidanylidene-1,4-benzoxazin-4-yl)ethanoylamino]methyl]benzoic acid]
< 4.30	CCCc1nc2sc3c(c2c(=O)n1NC(=O)CCC(=O)O)CCCC3 [4-keto-4-[(4-keto-2-propyl-5,6,7,8-tetrahydrobenzothiopheno[2,3-d]pyrimidin-3-yl)amino]butyric acid]
< 4.30	Cc1ccc(C(=O)Nc2cnc3sc(C)nn3c2=O)cc1 [4-methyl-N-(2-methyl-5-oxidanylidene-[1,3,4]thiadiazolo[3,2-a]pyrimidin-6-yl)benzamide]
< 4.30	CC1(C)CC(=O)C=C(NCc2ccncc2)C1 [5,5-dimethyl-3-(4-pyridylmethylamino)cyclohex-2-en-1-one]
< 4.30	CC(C)(C)NC(=O)CC(CC(=O)O)c1ccccc1 (stereo unspecified) [5-(tert-butylamino)-5-keto-3-phenyl-valeric acid]
< 4.30	C=CCn1c2ccccc2c2nnc(SCc3ccc4nonc4c3)nc21 [5-[(5-prop-2-enyl-[1,2,4]triazino[5,6-b]indol-3-yl)sulfanylmethyl]-2,1,3-benzoxadiazole]
< 4.30	O=C(CNS(=O)(=O)c1ccc(Br)s1)N1CCCC1 [5-bromanyl-N-(2-oxidanylidene-2-pyrrolidin-1-yl-ethyl)thiophene-2-sulfonamide]
< 4.30	Cc1ccc(NC(=O)C2CC=CCC2C(=O)N2CCCCC2)cc1 (stereo unspecified) [6-(Piperidine-1-carbonyl)-cyclohex-3-enecarboxylic acid p-tolylamide]
< 4.30	COc1ccc2c3c(cccc13)NN=C2C [6-Methoxy-3-methyl-1H-benzo[de]cinnoline]
< 4.30	Cc1ccc(Cl)cc1N1CCN(S(=O)(=O)c2ccc3c(c2)oc(=O)n3C)CC1 [6-[4-(5-chloranyl-2-methyl-phenyl)piperazin-1-yl]sulfonyl-3-methyl-1,3-benzoxazol-2-one]

pEC50	SMILES
< 4.30	CC(C)Nc1nnc(SCC(=O)c2c(N)n(Cc3ccccc3)c(=O)n(C)c2=O)s1 [6-amino-1-benzyl-3-methyl-5-[2-[[5-(propan-2-ylamino)-1,3,4-thiadiazol-2-yl]sulfanyl]acetyl]pyrimidine-2,4-dione]
< 4.30	O=C1CCN2C=Nc3cccc4ccc1c2c34 [7,8-dihydro-9H-pyrido[1,2,3-cd]perimidin-9-one]
6.14	CCOC(=O)c1c2c(n(C)c1C)C(=O)C(=O)c1ccc(Br)cc1-2 [8-bromo-2,3-dimethyl-4,5-dioxo-1-benzo[e]indolecarboxylic acid ethyl ester]
< 4.30	Oc1ccc2ccc3cccc[n+]3c2c1 [9-benzo[c]quinolizin-11-iumol;iodide]
< 4.30	COc1ccc(N(C)C2=NS(=O)(=O)c3ccccc32)cc1 [(1,1-Dioxo-1H-1lambda*6*-benzo[d]isothiazol-3-yl)-(4-methoxy-phenyl)-methyl-amine]
< 4.30	CC1Cc2ccccc2N1C(=O)c1ccc2c(c1)nnn2C (stereo unspecified) [(1-methyl-5-benzotriazolyl)-(2-methyl-2,3-dihydroindol-1-yl)methanone]
< 4.30	COc1cccc(OC)c1C(=O)N1CCN(c2ccccn2)CC1 [(2,6-dimethoxyphenyl)-(4-pyridin-2-ylpiperazin-1-yl)methanone]
< 4.30	CCOC(=O)Cc1csc(NC(=O)CSc2nnc(-c3ccc(F)cc3)o2)n1 [(2-{2-[5-(4-Fluoro-phenyl)-[1,3,4]oxadiazol-2-ylsulfanyl]-acetylamino}-thiazol-4-yl)-acetic acid ethyl ester]
< 4.30	CCc1noc(C)c1C(=O)N1CCOCC1 [(3-ethyl-5-methyl-1,2-oxazol-4-yl)-morpholin-4-yl-methanone]
< 4.30	CC1Cn2c(nnc2-c2cc3ccccc3cc2O)S1 (stereo unspecified) [(3E)-3-(6-methyl-5,6-dihydro-2H-[1,3]thiazolo[2,3-c][1,2,4]triazol-3-ylidene)naphthalen-2-one]
< 4.30	COc1ccc2c(c1OC)C(=O)OC2CC(=O)O (stereo unspecified) [(4,5-dimethoxy-3-oxo-1,3-dihydro-2-benzofuran-1-yl)acetic acid]
< 4.30	Nc1cc2nsnc2cc1Br [(6-bromopiazthiol-5-yl)amine]
< 4.30	OCC(CO)(CO)N=Cc1cc(Br)ccc1O [(6E)-4-bromanyl-6-[[[2-(hydroxymethyl)-1,3-bis(oxidanyl)propan-2-yl]amino]methylidene]cyclohexa-2,4-dien-1-one]
< 4.30	C/C(=C\C(=O)Nc1cc(C)on1)c1ccccc1 [(E)-N-(5-methyl-1,2-oxazol-3-yl)-3-phenyl-but-2-enamide]
< 4.30	CCC(=O)N1CCN(c2ccc(NC(=O)c3ccc4c(c3)OCO4)cc2)CC1 [Benzo[1,3]dioxole-5-carboxylic acid [4-(4-propionyl-piperazin-1-yl)-phenyl]-amide]
< 4.30	O=C(NC1(C(F)(F)F)NC(=O)N(CC2CCCCC2)C1=O)c1ccco1 (stereo unspecified) [MLS000040678]
< 4.30	CCn1ccc(C(=O)Nc2ccc(N(C)C(C)=O)cc2)n1 [MLS000043435]
< 4.30	Cc1ccccc1NS(=O)(=O)c1cc(C(=O)NCc2ccco2)ccc1C [MLS000052108]
< 4.30	c1ccc(NCc2nnc3n2CCCCC3)cc1 [MLS000057041]
< 4.30	CCc1nc2cc(Cl)c(Cl)cc2[nH]1 [MLS000064722]

SMILES	pEC50
O=[N+]([O-])c1ccc(N2CCNCC2)cc1NCC1CCCO1 (stereo unspecified) [(2-nitro-5-piperazino-phenyl)-(tetrahydrofurfuryl)amine]	< 4.30
